Reference: ChEMBL document CHEMBL1201862, “PubChem BioAssay data set” (2004)
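Step 1: Grow cells in 96-well plates. Step 2: Expose to compound for 48 hours at 5 concentrations. Step 3: Interpolate endpoints linearly; if unreached, use highest concentration. GI50 = concentration required for 50% inhibition of growth.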 The source made the active and inactive calls. Rule as the data show it: active = GI50 up to about 1.1 µM and inactive = higher.

Key:
Assay in all cases: NCI tumour cell line growth inhibition, 48 h
[1] = system: ACHN
[2] = system: SNB-19
[3] = system: HOP-92
[4] = system: OVCAR-5
[5] = system: 786-0
[6] = system: OVCAR-4
[7] = system: HCC 2998
[8] = system: CCRF-CEM
[9] = system: MDA-MB-435
[10] = system: OVCAR-3
[11] = system: M14
[12] = system: MCF7
[13] = system: HCT-116
[14] = system: SK-MEL-2
[15] = system: UACC-257
[16] = system: HT-29
[17] = system: IGROV-1
[18] = system: COLO 205
[19] = system: NCI-H522
[20] = system: RPMI-8226

SMILES	GI50 [1]	GI50 [2]	GI50 [3]	GI50 [4]	GI50 [5]	GI50 [6]	GI50 [7]	GI50 [8]	GI50 [9]	GI50 [10]	GI50 [11]	GI50 [12]	GI50 [13]	GI50 [14]	GI50 [15]	GI50 [16]	GI50 [17]	GI50 [18]	GI50 [19]	GI50 [20]
C/C=C(/C)C(=O)O[C@H]1C(C)=C[C@]23C(=O)[C@@H](C=C(COC(C)=O)[C@@H](O)[C@]12O)[C@H]1[C@@H](C[C@H]3C)[C@@]1(C)OC(=O)/C(C)=C\C	0.546 µM (active)	3.01 µM (inactive)	1.25 µM (inactive)	3.15 µM (inactive)	1.52 µM (inactive)	2.77 µM (inactive)	1.49 µM (inactive)	0.486 µM (active)	2.13 µM (inactive)	3.05 µM (inactive)	2.29 µM (inactive)	2.35 µM (inactive)	2.14 µM (inactive)	3 µM (inactive)	3.63 µM (inactive)	0.411 µM (active)	3.2 µM (inactive)	0.0596 µM (active)	1.8 µM (inactive)	
Cc1cc(C)c2c(c1)C1=NCCN1C2(O)c1ccc(Cl)cc1 (stereo not drawn)	16.1 µM (inactive)	16.2 µM (inactive)	7.35 µM (inactive)	16.5 µM (inactive)	16.1 µM (inactive)	15.5 µM (inactive)		17.2 µM (inactive)	16.7 µM (inactive)	15.5 µM (inactive)	14.5 µM (inactive)	18 µM (inactive)	13.3 µM (inactive)	18.5 µM (inactive)	17.1 µM (inactive)	16.5 µM (inactive)	14.2 µM (inactive)	15.1 µM (inactive)		13.6 µM (inactive)
CC(C)(C)c1cc(C(C)(C)C)c(SS(=O)(=O)O)c(O)c1O	31.6 µM (inactive)	46.8 µM (inactive)	84.1 µM (inactive)	> 100 µM (inactive)	63.7 µM (inactive)	28.9 µM (inactive)		49 µM (inactive)	23.9 µM (inactive)	34.1 µM (inactive)	41.3 µM (inactive)	36.3 µM (inactive)	33 µM (inactive)	21.2 µM (inactive)	79.1 µM (inactive)	41.1 µM (inactive)	55.7 µM (inactive)	46.5 µM (inactive)		21.6 µM (inactive)
O=C(c1ccccc1)c1ccc2[nH]c(-c3c(Cl)c(Cl)c(Cl)c(Cl)c3-c3nnc(-c4ccccc4)o3)nc2c1	69.7 µM (inactive)	56.9 µM (inactive)	35.7 µM (inactive)	67.5 µM (inactive)	36.6 µM (inactive)	20.7 µM (inactive)		46.3 µM (inactive)	3.51 µM (inactive)	13.8 µM (inactive)	28.2 µM (inactive)	9.79 µM (inactive)	27.4 µM (inactive)	20 µM (inactive)	80.2 µM (inactive)	31.3 µM (inactive)	29.5 µM (inactive)	18.3 µM (inactive)	6.28 µM (inactive)	12.4 µM (inactive)
CCN(CC)CC1CN=C(N)O1 (stereo not drawn)	> 100 µM (inactive)	> 100 µM (inactive)	> 100 µM (inactive)	> 100 µM (inactive)	> 100 µM (inactive)	> 100 µM (inactive)	> 100 µM (inactive)	> 100 µM (inactive)	> 100 µM (inactive)	> 100 µM (inactive)	> 100 µM (inactive)	> 100 µM (inactive)	> 100 µM (inactive)	> 100 µM (inactive)	> 100 µM (inactive)		> 100 µM (inactive)	> 100 µM (inactive)		> 100 µM (inactive)
CC1(C)CC(=O)c2c(nc3ccc4ccccc4c3c2-c2ccc(NC(=O)CCCCC(=O)Nc3ccc(-c4c5c(nc6ccc7ccccc7c46)CC(C)(C)CC5=O)cc3)cc2)C1	> 100 µM (inactive)	> 100 µM (inactive)	> 100 µM (inactive)	> 100 µM (inactive)	> 100 µM (inactive)			> 100 µM (inactive)	> 100 µM (inactive)	> 100 µM (inactive)	> 100 µM (inactive)	> 100 µM (inactive)	> 100 µM (inactive)	> 100 µM (inactive)	> 100 µM (inactive)	> 100 µM (inactive)	> 100 µM (inactive)	> 100 µM (inactive)		> 100 µM (inactive)
CC(C)[Si](OC12CCC(CC1O)CC2C(=O)O)(C(C)C)C(C)C (stereo not drawn)	15.7 µM (inactive)	15.6 µM (inactive)	7.31 µM (inactive)	14 µM (inactive)	11 µM (inactive)	12.6 µM (inactive)		13.1 µM (inactive)	14.5 µM (inactive)	14.8 µM (inactive)	15.8 µM (inactive)	11.3 µM (inactive)	10.7 µM (inactive)	14.6 µM (inactive)	16.7 µM (inactive)	11.7 µM (inactive)		21.7 µM (inactive)		10.1 µM (inactive)
O=C(C(Cl)=C(N1CCCCC1)N1CCCCC1)C(Cl)Cl	> 100 µM (inactive)	> 100 µM (inactive)	> 100 µM (inactive)		> 100 µM (inactive)	> 100 µM (inactive)	> 100 µM (inactive)	> 100 µM (inactive)	> 100 µM (inactive)	> 100 µM (inactive)	> 100 µM (inactive)	> 100 µM (inactive)	> 100 µM (inactive)		> 100 µM (inactive)	> 100 µM (inactive)	> 100 µM (inactive)	> 100 µM (inactive)	> 100 µM (inactive)	> 100 µM (inactive)
CN1CCC2(c3ccccc3)CC(=O)/C(=C/c3ccc(Cl)c(Cl)c3)C1C2.[O-][Cl+3]([O-])([O-])O (stereo not drawn)	1.77 µM (inactive)	2.3 µM (inactive)	2.31 µM (inactive)	2.35 µM (inactive)	2.37 µM (inactive)	2.51 µM (inactive)		2.02 µM (inactive)	2.11 µM (inactive)	2.9 µM (inactive)	2.96 µM (inactive)	3.4 µM (inactive)	2.62 µM (inactive)	3.74 µM (inactive)	9.46 µM (inactive)	1.95 µM (inactive)	1.95 µM (inactive)	1.95 µM (inactive)	1.84 µM (inactive)	2.29 µM (inactive)
Cc1cc(C)c(N[S+]([O-])c2cccc(Cl)c2)c(C)c1 (stereo not drawn)	> 100 µM (inactive)	> 100 µM (inactive)	> 100 µM (inactive)	> 100 µM (inactive)	> 100 µM (inactive)			> 100 µM (inactive)	> 100 µM (inactive)	> 100 µM (inactive)	> 100 µM (inactive)	> 100 µM (inactive)	> 100 µM (inactive)		> 100 µM (inactive)	> 100 µM (inactive)		> 100 µM (inactive)		> 100 µM (inactive)
C[N+](C)(C)CC(=O)N/N=C\c1c(O)ccc2ccccc12	32.7 µM (inactive)	63.4 µM (inactive)	13.2 µM (inactive)	57.1 µM (inactive)	37.8 µM (inactive)	32.2 µM (inactive)		27.8 µM (inactive)	39.3 µM (inactive)	35.9 µM (inactive)	31.5 µM (inactive)	59.7 µM (inactive)	42.6 µM (inactive)	28.3 µM (inactive)	18.7 µM (inactive)	> 100 µM (inactive)	20 µM (inactive)	> 100 µM (inactive)	16.2 µM (inactive)	32.1 µM (inactive)
CC1(O)Oc2ccc3ccccc3c2C=C1C(N)=O (stereo not drawn)	> 100 µM (inactive)	> 100 µM (inactive)	77.1 µM (inactive)		> 100 µM (inactive)	72.9 µM (inactive)	> 100 µM (inactive)	86.5 µM (inactive)	> 100 µM (inactive)		66.4 µM (inactive)	> 100 µM (inactive)	> 100 µM (inactive)	40.4 µM (inactive)	> 100 µM (inactive)		79.8 µM (inactive)	> 100 µM (inactive)		33.3 µM (inactive)
CC1=CC(=O)/C(=C/NC(=S)NCCc2ccccc2)C(=O)O1	> 100 µM (inactive)	> 100 µM (inactive)	> 100 µM (inactive)	> 100 µM (inactive)	31 µM (inactive)	> 100 µM (inactive)	> 100 µM (inactive)		> 100 µM (inactive)	> 100 µM (inactive)	> 100 µM (inactive)	> 100 µM (inactive)	27.2 µM (inactive)	> 100 µM (inactive)	> 100 µM (inactive)	> 100 µM (inactive)	> 100 µM (inactive)	> 100 µM (inactive)		
Nn1c(Cc2ccccc2)n[nH]c1=O	> 100 µM (inactive)	> 100 µM (inactive)		> 100 µM (inactive)	> 100 µM (inactive)	> 100 µM (inactive)	> 100 µM (inactive)	> 100 µM (inactive)	> 100 µM (inactive)	> 100 µM (inactive)	> 100 µM (inactive)	> 100 µM (inactive)	> 100 µM (inactive)	> 100 µM (inactive)	> 100 µM (inactive)	> 100 µM (inactive)	> 100 µM (inactive)	> 100 µM (inactive)	> 100 µM (inactive)	> 100 µM (inactive)
CC(=O)Nc1ccc(C(O)/C(=N/N)c2nc3ccc(Cl)cc3nc2O)cc1 (stereo not drawn)	> 100 µM (inactive)	> 100 µM (inactive)	> 100 µM (inactive)	> 100 µM (inactive)	> 100 µM (inactive)	> 100 µM (inactive)	> 100 µM (inactive)	> 100 µM (inactive)	> 100 µM (inactive)	> 100 µM (inactive)	> 100 µM (inactive)	> 100 µM (inactive)	> 100 µM (inactive)	> 100 µM (inactive)	> 100 µM (inactive)	> 100 µM (inactive)	> 100 µM (inactive)	> 100 µM (inactive)	> 100 µM (inactive)	
